From patent US12509460B2 (Skyhawk Therapeutics, Inc., priority 2019, dated 2025)
Like-named read-outs stand apart in the source and are kept apart here.

Legend:
[1] = tested on: SMN FL and SMN Δ7 in spinal muscular atrophy (SMA) patient fibroblasts (GM03813, Coriell); assay: Quantitative splicing assay (SMN), qPCR; assay type: cell-based, human; conditions: read-out: SMN2 Splicing FL EC50
Experimental: Spinal muscular atrophy (SMA) patient fibroblasts (GM03813, Coriell) are plated in 96-well plates at 50,000 cells/well. […] Treated cells are lysed and cDNA synthesized using the Fast Advanced Cells-to-Ct kit (Thermofisher A35378) according to the manufacturer's instructions. 2 μL of each cDNA are used in qPCR reactions. […] Reactions are run in a Quant Studio 6 qPCR instrument with default settings.

[2] = tested on: mHTT protein in GM04724 (CAG 70/20) Huntington's disease patient lymphoblast cells; assay: mHTT protein assay, 2B7-MW1 assay via Mesoscale Discovery (MSD); assay type: cell-based, human
Procedure, shortened: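 Signal from the 2B7-MW1 antibody pair on MSD, rising with polyQ length and smaller HTT fragments, measured mHTT after 48 h compound exposure (0.6 nM–10 μM) in GM04724 cells. A parallel replicate plate gave CellTiter Glo viability.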

[3] = tested on: MDR1-MDCK cell monolayers; assay: Blood-brain-barrier (BBB) penetration potential via MDCK-MDR1 permeability assay
[4] = tested on: MDR1 (P-gp); assay: as above; conditions: dog; for Papp A→B at 120 min, 5 μM: MDCK-MDR1, pH 7.4, MDCK-MDR1: Papp A-B; for Papp B→A at 120 min, 5 μM: MDCK-MDR1, pH 7.4, MDCK-MDR1: Papp B-A
[5] = tested on: MDR1; assay: as above; conditions: dog, MDCK-MDR1, pH 7.4, MDCK-MDR1: Efflux
[6] = Quantitative splicing assay (HTT), qPCR; assay type: cell-based, human; conditions: Homo sapiens, GM04724, 24 h, GM04724 lymphoblasts, read-out: HTT Splicing: E49-50 EC50
Experimental: Example A9: Quantitative Splicing Assay (HTT)
GM04724 (CAG 70/20) Huntington's disease patient lymphoblasts (Coriell) are plated in 96-well v-bottom plates at 50,000 cells/well. Immediately after plating, cells are dosed with compound for 24 h at concentrations ranging from 2.5 uM to 0.15 nM (0.1% DMSO). Treated cells are lysed and cDNA synthesized using the Fast Advanced Cells-to-Ct kit (Thermofisher A35378) according to the manufacturer's instructions. 2 uL of each cDNA are used in qPCR reactions to confirm the compound-induced inclusion of a cryptic exon within intron 49 of the Huntingtin (HTT) transcripts. The qPCR reactions are prepared in 384-well plates in 10 uL volume, using TagMan™ Fast Advanced Master Mix [ThermoFisher, 4444965] with primers and probes shown in the table below. Reactions are run in a Quant studio 6 qPCR instrument with default settings.

[7] = tested on: SMN protein in spinal muscular atrophy (SMA) patient fibroblasts (GM03813, Coriell); assay: SMN protein assay, Mesoscale Discovery (MSD); assay type: cell-based, human; conditions: for EC50: read-out: SMN2 protein EC50
Procedure, shortened: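 Absolute SMN levels were quantified by MSD against an SMN protein standard curve (1 μg/ml to 19.5 pg/ml) run on each plate. Samples were lysates of GM03813 patient fibroblasts (7000 cells/well) treated 48 hours with compound doses from 2.5 μM down to 0.6 nM.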

[8] = Homo sapiens, Fibroblast, 24 h, SMA patient fibroblasts GM03813, 24 h, qPCR
[9] = GM04724 Huntington's disease patient lymphoblasts
[10] = SMA patient fibroblasts GM03813, 48 hours, MSD
[11] = Homo sapiens, Fibroblast, 24 h, SMA patient fibroblasts (GM03813), 24 h
[12] = GM04724 (CAG 70/20) Huntington's disease patient lymphoblasts
[13] = SMA patient fibroblasts (GM03813), 48 hours

Structure (SMILES)	EC50 [1, 8] [nM]	EC50 [2, 9] [nM]	MDCK-MDR1: % Recov A-B ([3]; A-B direction) [%]	MDCK-MDR1: % Recov B-A ([3]; B-A direction) [%]	Papp A→B at 120 min, 5 μM ([4]; A-B direction) [×10⁻⁶ cm/s]	Papp B→A at 120 min, 5 μM ([4]; B-A direction) [×10⁻⁶ cm/s]	efflux ratio at 120 min, 5 μM ([5]; efflux ratio)	EC50 ([6]; qPCR) [nM]	EC50 [7, 10] [nM]	also measured
CN(c1ccc(-c2cc3ncn(C)c(=O)c3cc2O)nn1)[C@H]1C[C@@H]2CC[C@@H](N2)[C@H]1F [Compound 51B, 7-(6-(((1R,2R,3S,5S)-2-fluoro-8-azabicyclo[3.2.1]octan-3-yl)(methyl)amino)pyridazin-3-yl)-6-hydroxy-3-methylquinazolin-4(3H)-one]	0.01 to 15	0.01 to 15	88	90	0.91	50.3	55	0.01 to 15	0.01 to 15	
CN(c1ccc(-c2cc3ncccc3cc2O)nn1)[C@H]1C[C@@H]2CC[C@@H](N2)[C@H]1F [Compound 73B, 7-(6-(((1R,2R,3S,5S)-2-fluoro-8-azabicyclo[3.2.1]octan-3-yl)(methyl)amino)pyridazin-3-yl)quinolin-6-ol]	0.01 to 15	16 to 50	72	72	3.38	55.1	16	0.01 to 15	16 to 50	
Cc1ccc(-c2ccc(-c3ccc(N(C)[C@H]4C[C@@H]5CCC[C@@H](N5)[C@H]4F)nn3)c(O)c2)nn1 [Compound 27B, 2-(6-(((1R,2R,3S,5S)-2-fluoro-9-azabicyclo[3.3.1]nonan-3-yl)(methyl)amino)pyridazin-3-yl)-5-(6-methylpyridazin-3-yl)phenol]	0.01 to 15	0.01 to 15	98	115	1.13	43.5	38	16 to 50	0.01 to 15	
CN(c1ccc(-c2ccc(-c3cnc(C#N)cn3)cc2O)nn1)[C@H]1C[C@@H]2CCC[C@@H](N2)[C@H]1F [Compound 28B, 5-(4-(6-(((1R,2R,3S,5S)-2-fluoro-9-azabicyclo[3.3.1]nonan-3-yl)(methyl)amino)pyridazin-3-yl)-3-hydroxyphenyl) pyrazine-2-carbonitrile]	0.01 to 15	16 to 50	36	70	1.11	38.9	35	0.01 to 15	0.01 to 15	
Cc1nc2cc(-c3ccc(N(C)[C@@H]4C[C@H]5CC[C@H](N5)[C@@H]4F)nn3)c(O)cc2s1 [Compound 115A, 5-(6-(((1S,2S,3R,5R)-2-fluoro-8-azabicyclo[3.2.1]octan-3-yl)(methyl)amino)pyridazin-3-yl)-2-methylbenzo[d]thiazol-6-ol]										EC50 [1, 11]: 16 to 50 nM; EC50 [2, 12]: 0.01 to 15 nM; MDCK-MDR1: % Recov A-B ([3]; A-B): 93%; MDCK-MDR1: % Recov B-A ([3]; B-A): 78%; Papp A→B at 120 min, 5 μM ([4]; A-B): 4.7 ×10⁻⁶ cm/s; Papp B→A at 120 min, 5 μM ([4]; B-A): 39.3 ×10⁻⁶ cm/s; efflux ratio at 120 min, 5 μM [5]: 8; EC50 [6]: 16 to 50 nM; EC50 [7, 13]: 0.01 to 15 nM
Cc1nc2cc(-c3ccc(N(C)[C@@H]4C[C@H]5CC[C@H](N5)[C@@H]4F)nn3)c(O)cc2c(=O)n1C [Compound 114A, 7-(6-(((1S,2S,3R,5R)-2-fluoro-8-azabicyclo[3.2.1]octan-3-yl)(methyl)amino)pyridazin-3-yl)-6-hydroxy-2,3-dimethylquinazolin-4(3H)-one]										EC50 [1, 11]: 16 to 50 nM; EC50 [2, 12]: 0.01 to 15 nM; MDCK-MDR1: % Recov A-B ([3]; A-B): 102%; MDCK-MDR1: % Recov B-A ([3]; B-A): 102%; Papp A→B at 120 min, 5 μM ([4]; A-B): 0.28 ×10⁻⁶ cm/s; Papp B→A at 120 min, 5 μM ([4]; B-A): 37.8 ×10⁻⁶ cm/s; efflux ratio at 120 min, 5 μM [5]: 133; EC50 [6]: 0.01 to 15 nM; EC50 [7, 13]: 0.01 to 15 nM
CN(c1ccc(-c2ccc(C3=CCCC3)cc2O)nn1)[C@H]1C[C@@H]2CC[C@@H](N2)[C@H]1F [Compound 34B, 5-(cyclopent-1-en-1-yl)-2-(6-(((1R,2R,3S,5S)-2-fluoro-8-azabicyclo[3.2.1]octan-3-yl)(methyl)amino)pyridazin-3-yl)phenol]	16 to 50	51 to 100	12	48	1.02	2.81	3	51 to 100	16 to 50	
CN(c1ccc(-c2ccc(-n3nccn3)cc2O)nn1)[C@@H]1C[C@H]2CCC[C@H](N2)[C@@H]1F [Compound 5A, 2-(6-(((1S,2S,3R,5R)-2-fluoro-9-azabicyclo[3.3.1]nonan-3-yl)(methyl)amino)pyridazin-3-yl)-5-(2H-1,2,3-triazol-2-yl)phenol]	16 to 50	0.01 to 15	29	58	4.85	20.1	4	0.01 to 15	0.01 to 15	
COc1cc(-c2ccc(-c3ccc(N(C)[C@H]4CC5N[C@@H](C4)CC5(F)F)nn3)c(O)c2)cnn1 (single isomer, unassigned) [Compound 2B]		0.01 to 15	54	84				0.01 to 15		EC50 ([1]; SMA patient fibroblasts GM03813, 24 h, qPCR): 0.01 to 15 nM; MDCK-MDR1: Papp A-B ([3]; A-B direction): 9.99 10^−6, cm/s; MDCK-MDR1: Papp B-A ([3]; B-A direction): 52.8 10^−6, cm/s; MDCK-MDR1: Efflux ([3]; efflux ratio): 5; SMN2 protein EC50 [7, 10]: E (501 ≤ E ≤ 10.000)
Cc1nc2cc(O)c(-c3ccc(N(C)[C@H]4C[C@@H]5CC[C@@H](N5)[C@H]4F)nn3)cc2o1 (single isomer, unassigned) [Compound 40B]	16 to 50	0.01 to 15	67	99	4.71	75.8	16	0.01 to 15		
